From PMC7151626, “Antioxidant and α-amylase Inhibitory Activities and Phytocompounds of Clausena indica Fruits” (Medicines, 2020)

Biological target: T1, porcine pancreatic α-amylase (PPA) (Sus scrofa, UniProt P00690)
T1 construct: gene AMY2; native pancreatic enzyme
T1 sequence (P00690 16-511): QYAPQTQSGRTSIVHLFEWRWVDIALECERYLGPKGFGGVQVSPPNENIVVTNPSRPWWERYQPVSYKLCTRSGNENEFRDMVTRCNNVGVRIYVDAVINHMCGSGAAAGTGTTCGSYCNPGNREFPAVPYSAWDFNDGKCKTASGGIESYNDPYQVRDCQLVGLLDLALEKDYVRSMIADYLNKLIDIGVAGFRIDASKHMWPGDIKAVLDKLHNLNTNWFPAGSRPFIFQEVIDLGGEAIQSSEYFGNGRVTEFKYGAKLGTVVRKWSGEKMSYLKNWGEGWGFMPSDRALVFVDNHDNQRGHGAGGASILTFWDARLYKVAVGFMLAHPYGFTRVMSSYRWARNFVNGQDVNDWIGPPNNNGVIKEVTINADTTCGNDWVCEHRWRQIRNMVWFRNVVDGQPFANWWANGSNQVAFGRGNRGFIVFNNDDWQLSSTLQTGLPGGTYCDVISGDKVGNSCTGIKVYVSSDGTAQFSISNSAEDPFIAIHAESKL
Experiment: starch-iodine colorimetric assay, […] nm
Assay type: biochemical
Conditions: read-out: α-Amylase IC50 (mg/mL) (converted)

## CCCCCCCCCCCCCCCC(=O)O [palmitic acid]
  IC50: 5.93 mM
